The source of these data is patent publication US4737583A, “Anthracyclin derivatives” (priority 1983, dated 1988).

Data set [1] can be described thus: solubility (description of the substance).
In data set [2] the test system is L1210 leukemia cells. Description: cell proliferation test, incorporation of C14-thymidine into DNA of L1210 leukemia cells. In kind it is cell-based. To be noted: Mus musculus. As for the experimental part: The cytorhodins according to the invention are distinguished by a powerful cytostatic activity and gave the following action on L1210 leukemia cells in the cell proliferation test:
The inhibiting action is determined as follows (cell proliferation test):
L1210 cells in the exponential growth phase (5×10^3 /ml in RPMI 1640) are incubated with various concentrations of the test substance in a microtiter plate for 72 hours (37° C., 5% of CO2, 95% relative atmospheric humidity). Controls comprise cells which are incubated only with fresh medium. All the determinations are carried out as quadruplicate determinations. After 65 hours, 50 μl of C14-thymidine (1.5 μC/ml) are added in order to radioactively label the DNA of the cells. After incubation for 7 hours, the cells are filtered off with suction and the DNA is precipitated with 5% strength trichloroacetic acid and washed successively with water and methanol. After drying at 50° C., the radioactivity incorporated into the DNA is determined, after addition of 5 ml of scintillation liquid. The results are given as the relationships of the scintillation index after incubation with test substance in percent of the untreated control. […]

≈ marks a conversion by molar mass, not a printed value. Read-outs that look alike come from different tables or passages of the source.

Broadly, the IC50 is the concentration that gives 50% inhibition. For `CCC1(O)CC(OC2CC(N(C)C)C(O)C(C)O2)c2c(O)c3c(c(O)c2C1OC1CC(N(C)C)C(OC2CC4OC5CC(=O)C(C)OC5OC4C(C)O2)C(C)O1)C(=O)c1cccc(O)c1C3=O` (stereo not drawn) [Cytorhodin T], in data set [1], the “solubility in methanol, ethyl acetate, chloroform and toluene” value is on record as “readily soluble”; the “solubility in water and hexane” value was “insoluble”. In data set [2] (L1210, 72 h), this molecule registered an IC50 of 2 ng/mL (≈ 2.13 nM).
For `CCC1(O)CC(OC2CC(N(C)C)C(OC3CC4OC5CC(=O)C(C)OC5OC4C(C)O3)C(C)O2)c2c(O)c3c(c(O)c2C1OC1CC(N(C)C)C(O)C(C)O1)C(=O)c1cccc(O)c1C3=O` (stereo not drawn) [Cytorhodin S], in data set [1], the “solubility in methanol, ethyl acetate, chloroform and toluene” value is recorded as “readily soluble”; the “solubility in water and hexane” value is recorded as “insoluble”. For the same molecule, in data set [2] (L1210 leukemia cells, 72 hours, 37° C., incorporation of radioactive thymidine reduced by 50% compared with the control, read-out: IC50), the IC50 stood at 0.3 ng/mL (≈ 0.319 nM).
